Data set [1] addresses T1, hA3AR (Homo sapiens, UniProt P0DMS8).
T1 construct: host or cells: CHO cells
T1 sequence (P0DMS8 1-318): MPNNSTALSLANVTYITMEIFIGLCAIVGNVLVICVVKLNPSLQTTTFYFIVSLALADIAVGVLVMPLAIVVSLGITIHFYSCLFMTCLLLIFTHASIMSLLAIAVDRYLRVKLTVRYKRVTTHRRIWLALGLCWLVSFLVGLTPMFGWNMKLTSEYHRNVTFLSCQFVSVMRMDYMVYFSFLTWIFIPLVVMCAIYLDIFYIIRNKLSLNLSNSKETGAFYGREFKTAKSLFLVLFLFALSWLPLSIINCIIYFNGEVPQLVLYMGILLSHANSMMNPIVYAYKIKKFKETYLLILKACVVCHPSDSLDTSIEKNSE
As to the kind of experiment: Competition binding, [125I]AB-MECA, hA3 CHO cell membranes. Particulars: displacement of [125I]AB-MECA, hA3 CHO cells; mean ± SEM of four assays. The method, then:
(§1) CHO cells transfected with hA1, hA2A, hA2B and hA3 ARs (Perkin Elmer, Boston, MA, USA) were grown adherently and maintained in Dulbecco’s modified Eagle’s medium with nutrient mixture F12, containing 10% fetal calf serum, penicillin (100 U/mL), streptomycin (100 μg/mL), L-glutamine (2 mM) and geneticine (G418; 0.2 mg/mL), at 37 °C, in 5% CO2/95% air, until their use in cAMP assays. For membrane preparation, the culture medium was removed, and the cells were washed with phosphate-buffered saline and scraped off T75 flasks in ice-cold hypotonic buffer (5 mM Tris HCl, 1 mM EDTA, pH 7.4). The cell suspension was homogenized with a Polytron, centrifuged for 30 min at 40,000× g, at 4 °C, and the resulting membrane pellet was used for competition binding experiments.
All synthesized compounds were tested for their affinity to hA1, hA2A and hA3 ARs. Competition experiments to hA1AR were carried out by incubating 1 nM [^3H]-8-cyclopentyl-1,3-dipropylxanthine ([^3H]-DPCPX) with membrane suspension (50 μg of protein/100 μL) and different concentrations of the examined compounds at 25 °C for 90 min in 50 mM Tris HCl, pH 7.4. Non-specific binding was defined as binding in the presence of 1 μM DPCPX and was always <10% of the total binding. Inhibition experiments to hA2A ARs were performed by incubating the radioligand [^3H]-4-(-2-[7-amino-2-{2-furyl}{1,2,4}triazolo{2,3-a} {1,3,5}triazin-5-yl-amino]ethyl)phenol ([^3H]-ZM241385) (1 nM) with the membrane suspension (50 μg of protein/100 μL) and different concentrations of the examined compounds for 60 min, at 4 °C, in 50 mM Tris HCl (pH 7.4), 10 mM MgCl2. Non-specific binding was determined in the presence of ZM241385 (1 μM) and was about 20% of the total binding. Competition binding experiments to A3ARs were carried out by incubating the membrane suspension (50 μg of protein/100 μL) with 0.5 nM [^125I]-N6-(4-aminobenzyl)-N-methylcarboxamidoadenosine ([^125I]-ABMECA) in the presence of different concentrations of the examined compounds for an incubation time of 120 min, at 4 °C, in 50 mM Tris HCl (pH 7.4), 10 mM MgCl2, 1 mM EDTA. Non-specific binding was defined as binding in the presence of 1 μM ABMECA and was always <10% of the total binding. Bound and free radioactivity were separated by filtering the assay mixture through Whatman GF/B glass-fiber filters, using a Brandel cell harvester (Brandel Instruments, Unterföhring, Germany). The filter bound radioactivity was counted by Packard Tri Carb 2810 TR scintillation counter (Perkin Elmer).
The protein concentration was determined according to a Bio-Rad method, with bovine albumin as a standard reference. Inhibitory binding constant (Ki) values were calculated from those of IC50 according to the Cheng–Prusoff equation, Ki = IC50/(1 + [C*]/KD*), where [C*] is the concentration of the radioligand, and KD* its dissociation constant. Ki and IC50 values were calculated by non-linear regression analysis, using the equation for a sigmoid concentration-response curve (Graph-PAD Prism, San Diego, CA, USA).

The target of data set [2] is T1, hA3AR. As to the kind of experiment: Modulation of Forskolin-stimulated cAMP levels in hA3 CHO cells. Particulars: for IC50: cAMP assay, hA3 CHO cells, read-out: hA3AR IC50, potency to modulate Forskolin-stimulated cAMP levels; for hA3AR Efficacy: normalized: 2-Cl-IB-MECA full agonist = 100%. The class given is cell-based. The method, then:
(§2) The amino-3,5-dicyanopyridines 1–21 were tested for their affinity at hA1, hA2A and hA3 ARs, stably transfected in Chinese Hamster Ovary (CHO) cells. Moreover, they were also studied as hA2B agonists by evaluating their stimulatory effect on cAMP production in CHO cells, stably expressing the hA2B AR. […] Due to their interesting pan profile, both compounds 1 and 5 were evaluated as AR agonists also at the hA2A and hA3 subtypes.
as §1
(§3) CHO cells transfected with hAR subtypes were washed with phosphate-buffered saline, detached with tripsine and centrifuged for 10 min at 200× g. Cells were seeded in a 96-well white half-area microplate (Perkin Elmer, Boston, USA) in a stimulation buffer composed of Hank Balanced Salt Solution, 5 mM HEPES, 0.5 mM Ro 20–1724, 0.1% BSA. The cAMP levels were then quantified by using the AlphaScreen cAMP Detection Kit (Perkin Elmer, Boston, MA, USA), following the manufacturer’s instructions. At the end of the experiments, the plates were read with a Perkin Elmer EnSight Multimode Plate Reader.

The target in data set [3] is T2, hA1AR (Homo sapiens, UniProt P30542).
T2 construct: host or cells: CHO cells
T2 sequence (P30542 1-326): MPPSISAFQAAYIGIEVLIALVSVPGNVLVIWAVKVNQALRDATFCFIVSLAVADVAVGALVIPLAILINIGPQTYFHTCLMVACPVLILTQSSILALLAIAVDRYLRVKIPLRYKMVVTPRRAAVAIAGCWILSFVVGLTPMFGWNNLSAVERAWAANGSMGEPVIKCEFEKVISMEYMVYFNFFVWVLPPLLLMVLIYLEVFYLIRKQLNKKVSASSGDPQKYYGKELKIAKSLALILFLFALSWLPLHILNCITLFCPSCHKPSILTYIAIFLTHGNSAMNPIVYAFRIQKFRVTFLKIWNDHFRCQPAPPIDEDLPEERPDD
As to the kind of experiment: Modulation of Forskolin-stimulated cAMP levels in hA1 CHO cells. In kind it is cell-based. Particulars: for EC50: footnote c, mean ± SEM of four experiments, read-out: hA1AR EC50 or IC50, potency to modulate Forskolin-stimulated cAMP levels; for hA1AR Efficacy: normalized: CCPA full agonist = 100%, DPCPX inverse agonist = −100%; for hA1AR Profile: pharmacological profile in cAMP assay. The method, then: as §2, §1, §3

Take `N#Cc1c(N)nc(SCc2ncc[nH]2)c(C#N)c1-c1ccco1` [Compound 1, 2-Amino-4-(furan-2-yl)-6-[(1H-imidazol-2-ylmethyl)sulfanyl]pyridine-3,5-dicarbonitrile]: in data set [1], the Ki stood at 52 ± 5 nM. Also, in data set [2], the IC50 was determined as 68 ± 6 nM and the “hA3AR Efficacy” value is on record as 45 ± 4%. In data set [3], the EC50 is 12.2 ± 1.2 nM, the “hA1AR Efficacy” value is 31 ± 3% and the “hA1AR Profile” value is “Partial Agonist”.

Take `N#Cc1c(N)nc(SCc2ncc[nH]2)c(C#N)c1-c1cccs1` [Compound 5, 2-Amino-6-[(1H-imidazol-2-ylmethyl)sulfanyl]-4-(thiophen-2-yl)pyridine-3,5-dicarbonitrile]: the melting point was in the range of 246 to 248 °C. This compound also returned a Ki in data set [1] of 25 ± 2 nM. In data set [2], the IC50 stood at 33 ± 2 nM and the “hA3AR Efficacy” value came out at 34 ± 3%. In addition, in data set [3], the EC50 stood at 1.95 ± 0.16 nM, the “hA1AR Efficacy” value was 75 ± 5% and the “hA1AR Profile” value is reported as “Partial Agonist”.

The values above are taken from paper PMC9024521, “4-Heteroaryl Substituted Amino-3,5-Dicyanopyridines as New Adenosine Receptor Ligands: Novel Insights on Structure-Activity Relationships and Perspectives” (Pharmaceuticals, 2022).
